Several values for one entry are separate records, joined by “and”; a condition that tells them apart may be missing. Equal entries are not always repeated.
Experiments:
[1] = system: nucleus pulposus (NP) cells; experiment: Cytotoxicity of CPA 1 on NP cells in monolayer culture (LIVE/DEAD assay); assay type: cell-based, bovine; settings: PG as part of CPA 1 (FIG. 13)
Text: In this example, NP cells were isolated following a protocol adapted and modified from Wiseman et al. (Wiseman, M. A., H. L. Birch, M. Akmal, and A. E. Goodship, Spine, 2005, 30:505-11). Two freshly skinned skeletally mature bovine tails were obtained from a local abattoir, disinfected for five minutes in a 1% Betadine solution (RC3955, VWR International, PA), and allowed to dry in a sterile environment for ten minutes. Muscle and fat tissue were removed from each tail, exposing the IVDs. The isolated IVDs were wrapped with a sterile gauze soaked in 0.9% sodium chloride (IC102892.5, VWR International, PA) and 55 mM sodium citrate (BDH9288, VWR International, PA) while awaiting dissection.
NP tissue was removed with a scalpel, cut into 4 mm^2 pieces, and digested in a humidified cell incubator at 37° C. and 5% CO2. […]
In this example, NP cells were cultured in 6 well-plates to elucidate the cytotoxicity of CPA 1 composed of 80% DMEM (D6046, Sigma), 10% DMSO (IC0219605590, VWR International, PA), and % 10 propylene glycol (PG) (P4347, Sigma, MO). […] Cells were stained with a fluorescent LIVE/DEAD™ assay (L3224, ThermoFisher, MA) and scanned using Keyence BZ-X700 fluorescence microscope (Oregon State University, OR). […]

[2] = DMSO penetration in IVDs tracked by CT; assay type: in vitro ADME, bovine; settings: for DMSO saturation level: free swelling IVD without compression, 10% DMSO
Protocol: In this example, the transport of DMSO in free-swelling IVDs was assessed. Three skeletally mature Black Angus bovine IVDs were incubated in 10% DMSO for three days and CT-scanned at 0, 24, 56, and 72 hours. DMSO penetration was tracked using a Toshiba Aquilion 64-slice Computed Tomography (CT) unit provided by the Carlson College of Veterinary Medicine at Oregon State University. Acquisition parameters were set to 120 kVp, 240 FoV, 0.6 pitch, and 250 mA.
Materialize Mimics® 21.0 was used to segment the IVD's soft tissue (AF and NP). A code was developed in MATLAB® 9.9 to perform a Gaussian curve-fitting analysis of the segmented scans, estimating the mean signal intensity (FIG. 12).
The correlation in equation 1 was developed To relate mean signal intensity to penetration %, the mean signal intensity was normalized for the sample of interest (IVDn) to the intensities of both a fresh IVD (IVD0) and a fully-saturated IVD (IVDF*).
The effectiveness of PrimeGrowth™ (n=3) and compression (n=3) in improving the transport of DMSO and decreasing cell CPA exposure time were also assessed. PrimeGrowth™ is designed to clear blood clots in the CEP, improving transport through its pores and channels. Axial compression could enhance the convection transport of fluids in the IVD. IVDs treated with PrimeGrowth™ were incubated in a 30 mL Isolation Medium for one hour and rinsed in an equal volume of Neutralization Medium for two minutes. In a separate protocol, bovine IVDs were compressed in a custom-built bioreactor for four hours under a sine-wave load (0 MPa to 2.5 MPa at 0.1 Hz) and soaked in 10% DMSO. DMSO penetration in IVDs was tracked via CT scans compared to a control group (n=3) soaking in 10% DMSO. CT scans were acquired at 0, 5, 8, 24, and 36 hours.

| time required for DMSO to fully saturate the disc ([2]; IVD compressed before soaking in 10% DMSO) [h] | time required to reach a 75% level of penetration ([2]; IVD without compression) [h] | time to reach equilibrium with the surrounding solution ([2]; IVD without compression (FIG. 14)) [h] | DMSO penetration ([2]; compression then free swelling, in 3 to 4 hours) | decrease of the time required for full penetration by compression (improvement) ([2]; compression vs no compression) | DMSO penetration ([2]; compression, at 3 hours) [%] | DMSO saturation level ([2]; after 24 hours) [%] | DMSO saturation level ([2]; by 72 hours of incubation) [%] | mean DMSO penetration % compared to time 0 (one-way ANOVA, p<0.05) ([2]; free-swelling IVDs, after 24 hours of incubation) | SMILES | effect on cell viability in a monolayer cell culture [1] |
| --- | --- | --- | --- | --- | --- | --- | --- | --- | --- | --- |
|  |  |  |  |  |  |  |  |  | CC(O)CO (stereo not shown) [PG, propylene glycol] | devastating for cell viability |
| 3 | 72 | 72 | about 90% | 96% and 95% | 97 | 50 | 75 | significantly different | C[S+](C)[O-] [DMSO, dimethylsulfoxide] |  |
